According to patent US20250136617A1 (The Regents of the University of Colorado, A Body Corporate, priority 2022, published 2025):
Entries after “also recorded” stand apart in the source; their conditions may differ. Where two headings read alike, the source gives them in different places.

What was measured:
CXCR4 [1] = molecular target: T1, CXCR4 (Homo sapiens, UniProt P61073); test: cAMP signaling assay, oxazole scaffold (forskolin-induced adenylate cyclase, CHO-K1 CXCR4 cells); format: cell-based; design: host or cells: CHO-K1
T1 sequence (P61073 whole entry): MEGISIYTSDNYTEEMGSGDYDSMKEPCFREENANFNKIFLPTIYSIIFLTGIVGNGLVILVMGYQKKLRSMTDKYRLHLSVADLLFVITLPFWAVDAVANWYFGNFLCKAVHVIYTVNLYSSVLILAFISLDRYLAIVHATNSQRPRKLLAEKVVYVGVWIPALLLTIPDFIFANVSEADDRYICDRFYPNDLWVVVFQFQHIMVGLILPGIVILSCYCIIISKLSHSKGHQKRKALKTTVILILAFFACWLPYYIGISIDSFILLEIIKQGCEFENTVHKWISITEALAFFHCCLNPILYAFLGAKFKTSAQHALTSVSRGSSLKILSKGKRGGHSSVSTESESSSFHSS
Description: The CXCR4 receptor is a G-protein coupled receptor (GPCR) coupled to the Gi class, whose primary role is inhibition of adenylate cyclase. The ability of UCUF-728 to induce Gi-mediated cAMP-inhibitory cellular response was tested.
Forskolin at final concentration of […] was added to all wells using the TECAN dispenser. […] PathHunter CHO-K1 CXCR4 cells (DiscoverX, Fremont, CA) were added to compounds at 3,000 cells/well, centrifuged at 1000 rpm for 30 sec and incubated for 30 min at room temperature. DMSO (Sigma Aldrich, St. Louis, MO) was normalization to 0.5%. 5 μL of 4× Eu-cAMP tracer working solution was added to all wells followed by addition of 5 μL of 4× Ulight-anti-cAMP working solution to all wells. Plates were centrifuged at 1000 rpm for 1 min and incubated for 1 hr at room temperature then read using CLARIOstar Plus (BMG LABTECH Inc., Cary, NC) Lance CAMP protocol.

[2] = tested on: CEM-CCRF human lymphoblast cells; test: Transwell migration assay in CEM-CCRF lymphoblasts; format: cell-based
Description: Thus, to confirm CXCR4 functional activity, UCUF-728 was evaluated in a 96 w transwell migration assay in CEM human lymphoblast cells.
CEM-CCRF (ATCC CCL-119) were suspended in RPMI 1640 (Corning; 10-040-CV) at 5.0×10^5 cells/mL and allowed to incubate in cell culture incubator at 37° C. with 5% CO2 for one hour. […] Plates were reassembled and placed in a cell culture incubator at 37° C. with 5% CO2 for three hours. After incubation, Multi-Screen plate was disassembled and 100 μl of solution was collected from compound receiver tray and transferred to 96 well luminescent plate (Thermo Scientific; 265302) and an equal volume of ATPLite Istep luminescence reagent (Perkin Elmer, Waltham, MA; 6016731) was added to each well. Luminescence was measured using the CLARIOstar Plus (BMG LABTECH Inc., Cary, NC).

CXCR4 [3] = molecular target: T1, CXCR4; test: Adenylate cyclase (cAMP inhibition) assay, thiadiazine scaffold, CHO-CXCR4-cAMP cells; format: cell-based; design: host or cells: CHO-K1
Description: Tango™ CXCR4-bla U2OS Cells (Invitrogen; K1779) were used for (β-arrestin recruitment assays and maintained as a monolayer culture in McCoy's 5a (Corning; 10-050-CV) supplemented with 10% dialyzed Fetal Bovine Serum (Gibco; 26400-044), 0.1 mM MEM Non-essential amino acids solution, 25 mM HEPES solution (Corning; 25-060-CI), 1 mM Sodium Pyruvate (Gibco; 11360-070), 200 μg/mL Zeocin selection reagent (Gibco; R25001), 50 μg/mL Hygromycin B (Gibco, 10687010), and 100 μg/mL Geneticin (G418 Sulfate) (Gibco, 10131035). U2OS cells were subcultured twice weekly by 0.05% Trypsin-EDTA treatment (Corning; 25-051-CI) and passaged to continue exponential growth phase for cell signaling assays. All cell cultures were maintained in cell culture incubators at 37° C. with 5% CO2. CHO-K1 CXCR4 cells (DiscoverX, Fremont, CA, USA) were used for cAMP inhibition assays and maintained as a monolayer culture in DMEM/F12 (Corning; 10-091-CV) supplemented with 10% Fetal Bovine Serum (Corning; 35-011-CV) and 100IU penicillin, […] streptomycin sulfate (Corning; 30-002-CI) and […] G418 (Gibco; 101310350. Cells were subculture 2 times weekly by o.o5% Trypsin-EDTA treatment (Corning; 25-051-CI) and passaged to continue exponential growth phase for cell signaling assays. All cell cultures were maintained in cell culture incubators at 37° C. with 5% CO2.CEM-CCRF cells (ATCC CCL-119) were used in both the migration and calcium flux assays and were cultured in growth media consisting of RPMI 1640 (Corning; 10-040-CV) supplemented with 10% Fetal Bovine Serum (Corning; 35-011-CV), and 100 IU penicillin, […] streptomycin sulfate (Corning; 30-002-CI). […] Cells were harvested for use in migration and calcium flux assays at 2.0×10^6 cells/mL to 2.5×10^6 cells/mL and resuspended in assay media to desired density for respective experiments.
Compounds and DMSO normalization to 0.5% were dispensed using the TECAN D300e digital dispenser into the wells of a 384-well white wall clear-bottom assay plate (Griener 781983). […] This cell suspension was dispensed at 20 μL per well into the assay plate and allowed to incubate overnight for approximately 18 hrs with compounds in cell culture incubator at 37° C. with 5% CO2. Following incubation, DMEM/F12 media was gently removed, then the Lance Ultra cAMP Kit (Perkin Elmer; TRF0263) was performed according to the supplier guidelines. […] Time-resolved fluorescence was measured on the BMG LABTECH CLARIOstar Plus (BMG LABTECH Inc., Cary, NC) using the Lance Ultra cAMP kit guidelines for excitation and emission. […]

CXCR4 [4] = molecular target: T1, CXCR4; test: Tag-Lite CXCR4 binding assay (displacement of fluorescent SDF-1α)
Description: Binding activity was measured using the Cisbio Tag-Lite Chemokine CXCR4 system (CisBio, Bedford, MA). […] Following three-hour incubation, HTRF measurements were taken using the BMG LABTECH CLARIOstar Plus (BMG LABTECH Inc., Cary, NC) with emission signals set to the Cisbio Tag-Lite Binding Assay supplier guidelines. HTRF ratio calculations completed according to supplier guidelines.

CXCR4 [5] = molecular target: T1, CXCR4; test: β-arrestin recruitment, 384-well, Tango CXCR4-bla U2OS cells, normalized to SDF-1α; format: cell-based; design: host or cells: U2OS; conditions: normalized to SDF-1α; read-out: ß-arrestin recruitment EC50
Description: Tango™ CXCR4-bla U2OS Cells (Invitrogen; K1779) were used for (β-arrestin recruitment assays and maintained as a monolayer culture in McCoy's 5a (Corning; 10-050-CV) supplemented with 10% dialyzed Fetal Bovine Serum (Gibco; 26400-044), 0.1 mM MEM Non-essential amino acids solution, 25 mM HEPES solution (Corning; 25-060-CI), 1 mM Sodium Pyruvate (Gibco; 11360-070), 200 μg/mL Zeocin selection reagent (Gibco; R25001), 50 μg/mL Hygromycin B (Gibco, 10687010), and 100 μg/mL Geneticin (G418 Sulfate) (Gibco, 10131035). U2OS cells were subcultured twice weekly by 0.05% Trypsin-EDTA treatment (Corning; 25-051-CI) and passaged to continue exponential growth phase for cell signaling assays. All cell cultures were maintained in cell culture incubators at 37° C. with 5% CO2. CHO-K1 CXCR4 cells (DiscoverX, Fremont, CA, USA) were used for cAMP inhibition assays and maintained as a monolayer culture in DMEM/F12 (Corning; 10-091-CV) supplemented with 10% Fetal Bovine Serum (Corning; 35-011-CV) and 100IU penicillin, […] streptomycin sulfate (Corning; 30-002-CI) and […] G418 (Gibco; 101310350. Cells were subculture 2 times weekly by o.o5% Trypsin-EDTA treatment (Corning; 25-051-CI) and passaged to continue exponential growth phase for cell signaling assays. All cell cultures were maintained in cell culture incubators at 37° C. with 5% CO2.CEM-CCRF cells (ATCC CCL-119) were used in both the migration and calcium flux assays and were cultured in growth media consisting of RPMI 1640 (Corning; 10-040-CV) supplemented with 10% Fetal Bovine Serum (Corning; 35-011-CV), and 100 IU penicillin, […] streptomycin sulfate (Corning; 30-002-CI). Cells were maintained in suspension and sub-cultured twice weekly to maintain cell densities between 0.8×10^6 cells/mL and 2.5×10^6 cells/mL to maintain exponential growth phase. Cells were harvested for use in migration and calcium flux assays at 2.0×10^6 cells/mL to 2.5×10^6 cells/mL and resuspended in assay media to desired density for respective experiments.
Tango™ CXCR4-bla U2OS Cells were resuspended in assay media consisting of DMEM (Corning; Corning, NY) supplemented with 1% dialyzed Fetal bovine serum, 0.1 mM MEM Non-essential amino acids solution, 25 mM HEPES solution (Corning; Corning, NY), 1 mM Sodium Pyruvate and 100 IU penicillin, […] streptomycin sulfate (Corning; Corning, NY) at a density of 3.0×10^5 cells/ml. Assay media FreeStyle 293 expression Medium (Gibco; 12338018) was used for testing the thiadiazine scaffold CXCR4 agonists. Cells suspension was dispensed at 30 μl per well into assay plate and incubated overnight in a cell culture incubator at 37° C. with 5% CO2. […] Following overnight incubation, LiveBlazer FRET B/G Loading Kit (Invitrogen; K1095) working reagent was prepared according to supplier guidelines and 6 μl of solution was dispensed into each well; 8 μL of solution for testing the thiadiazine scaffold CXCR4 agonists. Assay plate was covered and incubated in a dark place for two hours and Fluorescence Intensity was measured using the BMG LABTECH CLARIOstar Plus (BMG LABTECH Inc., Cary, NC) according to the LiveBlazer FRET B/G Loading Kit excitation and emission measurement guidelines.
Results are expressed as mean±SD for 3 to 5 independent experiments. Statistically significant differences in gene expression between two groups were assessed by Student's T-test, ANOVA with an appropriate post hoc test was be used for multiple comparisons. P<0.05 was considered to be statistically significant. All concentration response curves were analyzed to determine EC50 and Emax using the following equation:
where Y is the normalized response (0-100%), X is the log of concentration of compound tested, and the Hill slope is equal to 1.0% and 100% activity are specific to each assay. […]

c1cc(CN2CCCNCCNCCCNCC2)ccc1CN1CCCNCCNCCCNCC1 [AMD3100, reference compound]
cAMP signaling / forskolin-induced adenylate cyclase (CXCR4 [1]): dose-dependently blocked; also recorded: dose-dependent inhibition of 40 nM SDF-1α
migration activity (words) [2]: blocked; also recorded: completely blocks SDF-1α induced migration; also recorded: unable to inhibit UCUF-965-induced migration; also recorded: does not inhibit the migratory response of CEM-CCRF cells induced by UCUF-965
IC50 ([2]; Homo sapiens, read-out: logIC50, inhibition of migration (converted)): 0.0316 µM
migration activity (words) ([2]; listed as AMD 3100): able to inhibit the migration response induced by SDF-1α
cAMP inhibition activity (CXCR4 [3]): reduces the activity of SDF-1α to inhibit cAMP
Emax (CXCR4 [3]; read-out: SDF-1α Emax reduced to, in the presence of 1 μM AMD3100): 40%
displacement of SDF-1α binding (CXCR4 [4]): dose-dependently displaced SDF-1α; also recorded: dose-dependently displaced SDF-1a saturation binding; also recorded: dose-dependently inhibited SDF-1α saturation binding

CCOc1ccccc1-c1nnc2n1N=C(c1ccc(N3CCCC3=O)cc1)CS2 [compound 63]
migration activity (words) [2]: partial agonist activity
cAMP inhibition activity (CXCR4 [3]): partial agonist activity

SDF-1α
cAMP signaling / forskolin-induced adenylate cyclase (CXCR4 [1]): inhibited forskolin-induced adenylate cyclase
IC50 (CXCR4 [3]; CXCR4 overexpressing CHO cells, read-out: IC50, inhibition of forskolin-stimulated cAMP production): 0.0015 µM
log IC50, inhibition of forskolin-stimulated cAMP production (CXCR4 [3]; log value): −8.9±0.1 M

CCOc1ccccc1-c1nnc2n1N=C(c1ccc(N3CCCC3)cc1)CS2 [Entry 23]
EC50 (CXCR4 [3]; inhibition of forskolin-stimulated cAMP): 0.05 µM
EC50 (CXCR4 [5]): 0.02 µM
